Data published in patent publication US20170246176A1, “PHACOSCLEROSIS INHIBITOR” (KEIO UNIVERSITY, priority 2014, published 2017).

Legend:
[1] = tested on: cornea state of the rat exposed to mainstream smoke; assay: Fluorescent staining of cornea after smoking treatment by exposure to mainstream smoke; type: in vivo, Sprague-Dawley (SD) rats; settings: male SD rats, smoking treatment 12 days, instillation 5 μL per eye, once before and 3 times after smoking treatment, 0.1% tiopronin or 0.005% pirenoxine (Catalin)
Procedure: (§1) Male 6-8-week-old Sprague-Dawley (SD) rats were divided into 4 groups, each group with 4 rats, and they were used as a nonsmoking treatment group (NT), a smoking treatment group (Smoking), a smoking treatment+0.1% tiopronin instillation group (S+0.1% Tiopronin), and a smoking treatment +0.005% pirenoxine instillation group (S+Catalin).
Tiopronin (Thiola Tab. 100, manufactured by Mylan EPD) was prepared to provide an active ingredient amount of 0.1 w/v %, whereby an ophthalmic solution was produced. Catalin For Ophthalmic 0.005% (manufactured by Senju Pharmaceutical Co., Ltd.) was used for the 0.005% pirenoxine instillation group. Each eye was instilled with 5 μL per instillation. Instillation was performed for 12 days, once before the following smoking treatment and 3 times after the treatment.
The smoking treatment was performed as follows by reference to the method of Higuchi et al. (Free Radic. Biol. Med., 2011, Vol. 51, pages 2210-2216). Rats were placed in a smoking chamber and 300 mL of mainstream smoke was added into the chamber with a syringe. Male 6-8-week-old SD rats (maximum 12 rats) were placed in a smoking chamber (60 cm×40 cm×35 cm) produced for the experiment, and fresh air was supplied into the chamber with an air pump. Tobacco (Seven Star. (registered trade mark)) was set on a 50 mL syringe, and the mainstream smoke was sucked and blown into the chamber. This suction operation was repeated 6 times, a total 300 mL of the mainstream smoke was added into the chamber, and the rats were left standing for 30 min while delivering fresh air by the pump. A similar operation was repeated 5 times more (total 6 times), thereby exposing the rats to the mainstream smoke for 3 hr in total per day. […] The body weight of the rats that underwent the smoking treatment for 12 days and the nonsmoking group was measured, and cornea, lacrimal gland, crystalline lens were harvested. […] Of the rats that underwent the smoking treatment, the instillation group (S+Tiopronin, S+Catalin) and the noninstillation group (Smoking) were compared for the fluorescence score.

[2] = tested on: hardening of crystalline lens due to exposure to mainstream smoke in rat; assay: Measurement of crystalline lens hardness after smoking treatment; type: in vivo, Sprague-Dawley (SD) rats; settings: male SD rats, smoking treatment 12 days; instillation 5 μL per eye, once before and 3 times after smoking treatment; 0.1% tiopronin or 0.005% pirenoxine (Catalin); Dunnett method, p<0.01
Procedure: as §1
Tiopronin (Thiola Tab. 100, manufactured by Mylan EPD) was prepared to provide an active ingredient amount of 0.1 w/v %, whereby an ophthalmic solution was produced. Catalin For Ophthalmic 0.005% (manufactured by Senju Pharmaceutical Co., Ltd.) was used for the 0.005% pirenoxine instillation group. Each eye was instilled with 5 μL per instillation. […]
The smoking treatment was performed as follows by reference to the method of Higuchi et al. (Free Radic. Biol. Med., 2011, Vol. 51, pages 2210-2216). […] The body weight of the rats that underwent the smoking treatment for 12 days and the nonsmoking group was measured, and cornea, lacrimal gland, crystalline lens were harvested. […] Of the rats that underwent the smoking treatment, the instillation group (S+Tiopronin, S+Catalin) and the noninstillation group (Smoking) were compared for the fluorescence score.
The crystalline lens isolated from the eyeball in Example 1 was measured for the crystalline lens hardness by the following method. […]

Structure (SMILES)	fluorescent staining score of cornea (corneal state), instillation group vs noninstillation smoking group [1]	fluorescent staining score of cornea (corneal state), instillation group vs noninstillation smoking group ([1]; listed as Catalin)	hardness of the crystalline lens (weight divided by distance), vs smoking treatment group [2]
O=C(O)c1cc(O)c2c3nc4ccccc4oc-3cc(=O)c2n1 [pirenoxine, 1-hydroxy-5-oxo-5H-pyrido[3,2-α]phenoxazine-3-carboxylic acid]	showed a tendency toward improvement	exacerbation of the corneal state due to instillation was not found	an increase in the hardness was significantly suppressed
CC(S)C(=O)NCC(=O)O (centres unmarked) [tiopronin, N-(2-mercaptopropionyl)glycine]	exacerbation of the corneal state due to instillation was not found	–	an increase in the hardness was significantly suppressed
